Patent US20230027361A1, “METTL3 MODULATORS” (priority 2019, published 2023)
Where two headings read alike, the source gives them in different places.

Columns and labels:
METTL3/METTL14 = METTL3/METTL14 (Homo sapiens, UniProt Q86U44); experiment: METTL3-14 Standard Enzyme Assay (METTL3 biochemical assay)
Summary of the method: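 METTL3/METTL14 at 2.5 nM, preincubated 5 min with compound in 20 mM HEPES pH 7.5, 50 mM KCl, 250 μM MgCl2, 1 mM DTT, at ambient temperature. Started with 100 nM 3′-biotinylated RNA and 100 nM ³H-SAM, quenched at 30 min with 15 μM cold SAM. Methylation read by scintillation on streptavidin flashplates.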

PRMT5-MEP50 = PRMT5-MEP50 (Homo sapiens, UniProt O14744); experiment: PRMT5 Assay (PRMT5 biochemical assay)
Sequence of PRMT5-MEP50 (O14744 whole entry): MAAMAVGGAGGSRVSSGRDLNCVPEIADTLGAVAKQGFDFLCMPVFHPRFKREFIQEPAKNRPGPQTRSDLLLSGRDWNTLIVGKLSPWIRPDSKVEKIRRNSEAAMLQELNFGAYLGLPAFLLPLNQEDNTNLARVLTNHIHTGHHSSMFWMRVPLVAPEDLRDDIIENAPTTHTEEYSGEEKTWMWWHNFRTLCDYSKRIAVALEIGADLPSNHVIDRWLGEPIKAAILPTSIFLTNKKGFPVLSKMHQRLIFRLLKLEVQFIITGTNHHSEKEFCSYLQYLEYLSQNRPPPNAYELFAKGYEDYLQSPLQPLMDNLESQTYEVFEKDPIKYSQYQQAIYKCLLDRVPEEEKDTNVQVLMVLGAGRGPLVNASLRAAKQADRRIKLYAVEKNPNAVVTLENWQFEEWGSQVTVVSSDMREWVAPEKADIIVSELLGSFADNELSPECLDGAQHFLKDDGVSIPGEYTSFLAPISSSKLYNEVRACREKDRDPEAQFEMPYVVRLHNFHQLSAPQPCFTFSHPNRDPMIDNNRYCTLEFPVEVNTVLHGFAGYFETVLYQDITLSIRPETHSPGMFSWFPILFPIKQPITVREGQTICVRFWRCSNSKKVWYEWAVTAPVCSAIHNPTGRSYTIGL
Sequence of PRMT5-MEP50 (Q9BQA1 whole entry partner): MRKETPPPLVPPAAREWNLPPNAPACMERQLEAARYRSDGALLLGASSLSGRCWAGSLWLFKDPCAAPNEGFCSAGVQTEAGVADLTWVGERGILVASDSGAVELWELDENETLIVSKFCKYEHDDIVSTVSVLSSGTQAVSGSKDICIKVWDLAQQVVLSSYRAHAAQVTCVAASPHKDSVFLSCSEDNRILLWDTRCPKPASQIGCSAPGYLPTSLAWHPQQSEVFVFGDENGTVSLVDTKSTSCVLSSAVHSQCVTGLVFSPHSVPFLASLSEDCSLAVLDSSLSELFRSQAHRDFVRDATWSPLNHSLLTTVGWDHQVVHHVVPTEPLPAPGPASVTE
Summary of the method: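 PRMT5-MEP50 (2.5 nM final) preincubated 5 min with compound, then reacted 60 min at ambient temperature with 100 nM biotinylated N-acetyl histone H4 peptide and 250 nM 3H-SAM in 20 mM Tris-HCl pH 8.0, 1 mM DTT, 0.01% Tween. Quenched with 15 μM cold SAM; methylated peptide captured on streptavidin flashplates, scintillation counted.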

MOLM-13 cells [1] = experiment: MOLM-13 96 Hour Cell Proliferation Assay; assay type: cell-based; details: Homo sapiens
Protocol: MOLM-13 (DSMZ) cells were seeded at 600 cells per well in a volume of 44 μL in a Greiner Bio-One CELLSTAR™ 384 Well Polystyrene Cell Culture clear bottom microplate in RPMI 1640 media containing 10% fetal bovine serum using a Multidrop Combi (ThermoFisher Scientific). Cells were incubated overnight at 37° C. in a humidified tissue culture incubator. To prevent evaporation or to reduce edge effect, add 50 μL or more H2O to an empty plate, cover, and place on top of the cell plates. The Mosquito® HTS Liquid Handler was used to make a compound/media intermediate plate by aliquoting 1 μL of compound from the initial compound dilution plate (concentrations ranging from 10.0 mM to 38.0 nM in 100% DMSO) into Bio-One 384-well polypropylene conical bottom microplate containing 49 μL of media containing the appropriate serum (50-fold dilution, 2% DMSO, compound concentrations ranging from 200.0 μM and […]). The Apricot liquid handling system was used to transfer 6.2 μL compounds from the intermediate plate into the seeding plate containing 44 μL cells (8-fold dilution spanning concentrations 25.0 μM to […], 0.25% DMSO final), and placed in a humidified tissue culture incubator at 37° C. After 96 hours, 25 μL of Cell Titer-Glo reagent (Promega) was added to each well using an Integra liquid handling system. The plate was protected from light using TopSeal-A (Black) film over the entire plate, added White Bottom seal film on the bottom of the entire plate for a better reading on the Envision, and placed on an IKA plate shaker for at 300 rpm for 10 minutes at room temperature. The plate was read on an EnVision plate reader (Perkin Elmer) using the Ultra Sensitive Luminescence protocol. Data analysis was performed by normalizing the raw luminescence units to an average of the positive control values for staurosporine (100% cell death) and the negative control values for DMSO (0% cell death). An IC50 was calculated using a 4-parameter logistic nonlinear regression model in GraphPad Prism.

METTL1/WDR4 = METTL1/WDR4 (Homo sapiens, UniProt Q9UBP6); experiment: METTL1 Assay (METTL1 biochemical assay)
Sequence of METTL1/WDR4 (Q9UBP6 whole entry, species assumed): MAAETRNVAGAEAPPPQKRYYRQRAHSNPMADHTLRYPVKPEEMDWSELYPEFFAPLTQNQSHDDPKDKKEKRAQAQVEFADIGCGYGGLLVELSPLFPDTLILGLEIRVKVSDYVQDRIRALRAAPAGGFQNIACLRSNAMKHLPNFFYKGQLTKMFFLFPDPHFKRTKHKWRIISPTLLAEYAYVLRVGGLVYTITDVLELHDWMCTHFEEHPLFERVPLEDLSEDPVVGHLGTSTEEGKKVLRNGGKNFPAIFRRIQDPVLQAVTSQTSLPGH
Sequence of METTL1/WDR4 (P57081 whole entry partner, species assumed): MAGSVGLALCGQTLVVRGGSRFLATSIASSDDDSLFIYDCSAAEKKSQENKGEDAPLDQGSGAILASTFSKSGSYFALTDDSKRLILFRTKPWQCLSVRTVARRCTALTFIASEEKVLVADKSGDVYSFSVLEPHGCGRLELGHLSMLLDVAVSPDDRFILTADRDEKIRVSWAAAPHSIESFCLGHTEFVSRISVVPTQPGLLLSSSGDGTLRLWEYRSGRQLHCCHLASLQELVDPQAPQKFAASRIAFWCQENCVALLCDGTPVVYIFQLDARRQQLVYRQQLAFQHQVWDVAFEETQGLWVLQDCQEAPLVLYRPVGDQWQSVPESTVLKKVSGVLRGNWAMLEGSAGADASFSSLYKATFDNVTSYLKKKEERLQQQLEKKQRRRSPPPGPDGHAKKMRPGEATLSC
Protocol: Assays were performed in a 25 μl-volume in 384-well V-bottom polypropylene microplates (Greiner Bio-One, cat. No. 781280) at ambient temperature. Optimized 1× assay buffer was 20 mM HEPES pH 7.5, 50 mM KCl, 250 μM MgCl2, 1 mM DTT, 0.01% Tween, 0.01% BSG, 0.004 U/μl RNAseOUT (cat. No. 10777019, ThermoFisher Scientific, Waltham, Mass.). For compound screening METTL1/WDR4 (final concentration, f.c.=6.25 nM) was added using a Multidrop Combi (ThermoFisher Scientific, Waltham, Mass.) and preincubated for 5 min. Reactions were started by adding 3′ biotinylated RNA ([…]-biotin) (f.c.=25 nM) and 3H-SAM (f.c.=60 nM) substrates. Reactions proceeded for 20 minutes and were quenched with excess non-radioactive SAM (f.c.=15 μM). The reactions were then transferred to streptavidin-coated flashplates and incubated for 2 hours at 25° C. Following two washing cycles with 0.1% Tween-20, the plates were sealed and read on a TopCount (PerkinElmer, Waltham, Mass.) plate-based scintillation counter. For determination of kinetic parameters, reaction times were optimized so that measurements were taken during the initial velocity phase of the reaction.

MOLM-13 cells [2] = experiment: MOLM-13 48 Hour Cell Proliferation Assay; assay type: cell-based; details: Homo sapiens
Protocol: MOLM-13 (DSMZ) cells were seeded at 1000 cells per well in a volume of 44 μL in a Falcon 384-well tissue culture treated clear bottom microplate in RPMI 1640 media containing 10% fetal bovine serum using a Multidrop Combi (ThermoFisher Scientific). Cells were incubated overnight at 37° C. in a humidified tissue culture incubator. The Mosquito® HTS Liquid Handler was used to make a compound/media intermediate plate by aliquoting 1 μL of compound from the initial compound dilution plate (concentrations ranging from 10.0 mM to 38.0 nM in 100% DMSO) into a V bottom 384-well screen matrix plate containing 49 μL of media containing the appropriate serum (50-fold dilution, 2% DMSO). The Apricot liquid handling system was used to transfer 6.2 μL compounds from the intermediate plate into the Falcon 384-well tissue culture plate containing 44 μL cells (10-point, 4-fold dilution spanning concentrations 25.0 μM to […], 0.25% DMSO final), and placed in a humidified tissue culture incubator at 37° C. After 48 hours, 25 μL of Cell Titer-Glo reagent (Promega) was added to each well using a Multidrop Combi. The plate was protected from light and placed on an IKA plate shaker for at 300 rpm for 10 minutes at room temperature. The plate was read on an EnVision plate reader (Perkin Elmer) using the Ultra Sensitive Luminescence protocol. Data analysis was performed by normalizing the raw luminescence units to an average of the positive control values for staurosporine (100% cell death) and the negative control values for DMSO (0% cell death). An IC50 was calculated using a 4-parameter logistic nonlinear regression model in GraphPad Prism.

[3] = read-out: METTL3 IC50; METTL3 biochemical assay
[4] = read-out: PRMT5 IC50; PRMT5 biochemical assay
[5] = METTL1 biochemical assay; read-out: METTL1 IC50
[6] = METTL3 biochemical assay; read-out: METTL3 IC50
[7] = read-out: METTL1 IC50; METTL1 biochemical assay
[8] = PRMT5 biochemical assay; read-out: PRMT5 IC50

Sequence of METTL3/METTL14 (Q86U44 whole entry, species assumed): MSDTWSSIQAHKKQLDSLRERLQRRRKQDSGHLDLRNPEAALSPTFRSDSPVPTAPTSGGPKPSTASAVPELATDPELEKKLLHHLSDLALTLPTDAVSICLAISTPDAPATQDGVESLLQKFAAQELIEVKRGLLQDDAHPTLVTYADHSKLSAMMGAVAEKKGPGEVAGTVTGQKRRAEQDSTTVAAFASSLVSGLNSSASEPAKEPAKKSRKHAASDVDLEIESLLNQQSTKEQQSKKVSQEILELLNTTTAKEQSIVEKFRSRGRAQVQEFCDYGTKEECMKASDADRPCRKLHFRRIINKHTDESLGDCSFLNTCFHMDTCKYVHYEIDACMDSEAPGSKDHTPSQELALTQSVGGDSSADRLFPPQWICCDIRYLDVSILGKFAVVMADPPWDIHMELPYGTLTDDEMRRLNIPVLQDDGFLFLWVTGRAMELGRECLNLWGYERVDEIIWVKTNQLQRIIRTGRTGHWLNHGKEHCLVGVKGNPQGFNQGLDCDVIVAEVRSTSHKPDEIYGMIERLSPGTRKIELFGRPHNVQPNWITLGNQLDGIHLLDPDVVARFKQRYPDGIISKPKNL
Sequence of METTL3/METTL14 (Q9HCE5 whole entry partner, species assumed): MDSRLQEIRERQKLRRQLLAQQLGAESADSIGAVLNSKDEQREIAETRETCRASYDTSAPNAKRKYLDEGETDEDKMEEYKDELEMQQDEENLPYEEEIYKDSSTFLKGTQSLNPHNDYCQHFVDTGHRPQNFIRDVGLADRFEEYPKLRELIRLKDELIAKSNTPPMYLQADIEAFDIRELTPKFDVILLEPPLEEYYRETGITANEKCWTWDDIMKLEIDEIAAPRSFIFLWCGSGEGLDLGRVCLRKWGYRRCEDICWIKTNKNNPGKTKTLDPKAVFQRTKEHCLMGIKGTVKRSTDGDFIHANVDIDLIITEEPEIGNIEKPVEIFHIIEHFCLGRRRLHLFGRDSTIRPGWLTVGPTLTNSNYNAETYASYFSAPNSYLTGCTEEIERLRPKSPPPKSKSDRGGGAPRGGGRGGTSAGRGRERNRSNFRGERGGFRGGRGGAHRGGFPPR

| Compound | IC50 (METTL3/METTL14; [3]) | IC50 (PRMT5-MEP50; [4]) | IC50 (MOLM-13 cells [1]) | IC50 (METTL1/WDR4; [5]) | IC50 (MOLM-13 cells [1]; MOLM-13, 96 h) | IC50 (METTL3/METTL14; [6]) | IC50 (METTL1/WDR4; [7]) | IC50 (PRMT5-MEP50; [8]) | IC50 (MOLM-13 cells [2]) |
| --- | --- | --- | --- | --- | --- | --- | --- | --- | --- |
| CNc1ccc2ccc(OC[C@H]3O[C@@H](n4cc(-c5ccn(C(C)C)n5)c5c(N)ncnc54)[C@@H](F)[C@@H]3O)cc2n1 [I-2] | < 0.01 µM | 0.1 to 1 µM | < 1 µM | – | – | – | – | – | – |
| CCn1ccc(-c2cn([C@@H]3O[C@H](COc4ccc5ccc(NC)nc5c4)[C@@H](O)[C@@H]3F)c3ncnc(N)c23)n1 [I-3] | < 0.01 µM | 0.01 to 0.1 µM | < 1 µM | – | – | – | – | – | – |
| CCNc1ccc2ccc(OC[C@H]3O[C@@H](n4cc(-c5ccn(C)n5)c5c(N)ncnc54)[C@@H](F)[C@@H]3O)cc2n1 [I-7] | < 0.01 µM | 0.01 to 0.1 µM | – | > 1 µM | < 1 µM | – | – | – | – |
| CNc1ccc2cc(CC[C@H]3C[C@@H](n4ccc5c(N)ncnc54)[C@H](O)[C@@H]3O)ccc2n1 [I-111] | – | – | – | – | 1 to 10 µM | 0.1 to 1 µM | > 1 µM | < 0.01 µM | – |
| Nc1ccc2cc(CC[C@H]3C[C@@H](n4ccc5c(N)ncnc54)[C@H](O)[C@@H]3O)ccc2n1 [I-125] | – | – | – | – | 1 to 10 µM | 0.1 to 1 µM | > 1 µM | < 0.01 µM | – |
| CNc1ncnc2c1ccn2[C@@H]1C[C@H](CCc2ccc3ccc(N)nc3c2)[C@@H](O)[C@H]1O [I-129] | – | – | – | – | – | > 1 µM | > 1 µM | < 0.01 µM | – |
| Nc1ncnc2c1ccn2[C@@H]1C[C@H](CCc2ccc3nccnc3c2)[C@@H](O)[C@H]1O [I-130] | – | – | – | – | < 1 µM | – | > 1 µM | < 0.01 µM | – |
| Nc1ccc2ccc(CC[C@H]3C[C@@H](n4ccc5c(N)ncnc54)[C@H](O)[C@@H]3O)cc2n1 [I-138] | – | – | – | – | – | 0.1 to 1 µM | > 1 µM | < 0.01 µM | – |
| Nc1ccc2ccc(CO[C@H]3C[C@@H](n4ccc5c(N)ncnc54)[C@H](O)[C@@H]3O)cc2n1 [I-139] | – | – | – | – | – | < 0.01 µM | > 1 µM | < 0.01 µM | – |
| CNc1ccc2ccc(OC[C@H]3O[C@@H](n4cc(CC5CC5)c5c(N)ncnc54)[C@H](O)[C@@H]3O)cc2n1 [I-142] | – | – | – | – | – | < 0.01 µM | > 1 µM | 0.01 to 0.1 µM | 1 to 10 µM |
| CNc1ccc2ccc(OC[C@H]3O[C@@H](n4cc(-c5ccn(C6CCC6)n5)c5c(N)ncnc54)[C@@H](F)[C@@H]3O)cc2n1 [I-143] | – | – | – | > 1 µM | – | < 0.01 µM | – | 0.1 to 1 µM | 1 to 10 µM |
| CNc1ccc2ccc(OC[C@H]3O[C@@H](n4cc(-c5ccn(C6COC6)n5)c5c(N)ncnc54)[C@@H](F)[C@@H]3O)cc2n1 [I-144] | < 0.01 µM | 0.1 to 1 µM | – | > 1 µM | – | – | – | – | 1 to 10 µM |
| CCc1cc(N)c2ccc(OC[C@H]3O[C@@H](n4cc(-c5ccn(C)n5)c5c(N)ncnc54)[C@@H](F)[C@@H]3O)cc2n1 [I-145] | < 0.01 µM | 0.1 to 1 µM | – | > 1 µM | – | – | – | – | – |
